{"source": "patent US20230035127A1", "about": "“CULTURE AND DIFFERENTIATION OF PLURIPOTENT STEM CELLS” (University of Maryland, College Park, priority 2021, published 2023)", "system": "human eiPSCs", "assay": "RNA sequencing of eiPSC spheroids and cardiac spheroids", "format": "cell-based", "conditions": "MO vs. MT (1 vs 10 μM RI), day 13.5", "text": "To investigate the mechanisms for the different outcomes when using different RI concentrations for culturing the eiPSC spheroids in 3D for cardiac differentiation, samples at various stages of the 3D culture and differentiation shown in FIG. 1 were collected and analyzed by RNA-sequencing (RNA-seq). The sample groups and their abbreviations are summarized in Table 1 including undifferentiated eiPSCs on day −2.5 (U), cardiac commitment on day 2.5 (C), cardiac maturation on day 13.5 (M), together with 2D monolayer colonies on day −4 (2D) as a common 2D undifferentiated control for both the 1 (one: […]) and 10 (ten: T) μM RI 3D culture. The raw data of RAN-seq were of high quality with an error rate of no more than 0.03%. […] Afterward, the gene expression level was calculated by the number of mapped reads, also known as fragments per kilobase of transcript per million mapped reads (FPKM). […]\nFor RNA sequencing (RNA-Seq), total RNA was extracted from the eiPSC clumps from 2D culture on day −4 (termed as 2D) and spheroids collected on day −2.5 after 1.5 days in the 3D culture (termed as UO and UT for 1 μM and 10 μM RI conditions, respectively), day 2.5 (termed as CO and CT), and day 13.5 (termed as MO and MT). […] The RNA concentration in the samples was measured with Nanodrop and the integrity and quality of RNAs in the samples were confirmed with the Nano RNA Bioanalyzer. […]"}
{"smiles": "C[C@@H](N)[C@H]1CC[C@H](C(=O)Nc2ccncc2)CC1.Cl.Cl", "note": "(relative stereo) [RI, (+)-(R)-trans-4-(1-aminoethyl)-N-(4-pyridyl) cyclo-hexanecarboxamide dihydrochloride]", "values": [{"measurement": "top 2 significantly down-regulated differentially expressed gene groups (GO enrichment)", "result": "enriched to the forebrain and axon development"}, {"measurement": "top 18 significantly upregulated differentially expressed gene groups (GO enrichment)", "result": "enriched to heart development, muscle system process, and the development of Z-disc and I band"}]}
